The results in this text go back to US20130171105A1, “CANCER THERAPY USING A COMBINATION OF A HSP90 INHIBITORY COMPOUND AND A TOPOISOMERASE II INHIBITOR” (SYNTA PHARMACEUTICALS CORP., priority 2010, published 2013).

Experiment [1] concerns K562 chronic myelogenous leukemia cells. Put plainly: Cell viability, Alamar Blue assay. The following applies: Homo sapiens, K562, 72 h, read-out: IC50 (cell viability). (Resazurin is reduced to fluorescent resorufin, in cell work by metabolically active cells.)
Procedure: Human K562 chronic myelogenous leukemia cells (American Type Culture Collection) were grown in RPMI medium with 2 mM L-glutamine, antibiotics (100 IU/ml penicillin and 100 μg/ml streptomycin) and 10% fetal bovine serum (Sigma Aldrich). Cells were maintained at 37° C., 5% CO2 atmosphere and subcultured at 1×10^6 cells/mL.
Cell viability was measured using the Alamar Blue assay (Invitrogen). In brief, cells were plated in 96-well plates in triplicate at 2000 cells per well and incubated at 37° C., 5% CO2 atmosphere for 24 hr prior to the addition of drug or vehicle (0.3% DMSO) to the culture medium. After 72 hr, 10 μl/well Alamar Blue was added to the wells and incubated for an additional 3 hr at 37° C., 5% CO2 atmosphere. Fluorescence (560Ex/590Em nM) was measured with a SpectraMax microplate reader (Molecular Devices) and the resulting data were used to calculate cell viability, normalized to vehicle control.
After 72 hr exposure to drug, cell viability was measured and results were fit to a four parameter logistic model (XLFit, ID Business Solutions) shown in FIG. 1.
The next experiment has as its target T1, topoisomerase II (Homo sapiens, UniProt P11388).
T1 construct: purchased TopoGEN, Inc
Put plainly: kDNA decatenation assay (Topo II assay). Type of experiment: biochemical. Set-up: key: + (some inhibition); + (some inhibition) < ++ < +++; ++ < +++ < ++++; ++++ (complete inhibition). The following applies: kDNA substrate, 37° C. for 30 min, agarose gel. The method, then:
The ability of compounds of the formulae (I) or (Ia) to inhibit the activity of topoisomerase II was examined with a kDNA decatenation assay (TopoGEN, Inc. Port Orange, Fla.). Substrate kDNA was mixed with compounds and incubated at 37° C. for 30 min. The reaction was stop by adding ⅕ volume of stop buffer. 20 μl of the reaction was loaded on 1% agarose gel. Image of decatenation of kDNA by compounds was taken by Kodak Image Station 440. Table 1 indicates the ability of compound 1 inhibiting the activity of topoisomerase II.

The structures appear in SMILES notation.

T1 sequence (P11388 whole entry): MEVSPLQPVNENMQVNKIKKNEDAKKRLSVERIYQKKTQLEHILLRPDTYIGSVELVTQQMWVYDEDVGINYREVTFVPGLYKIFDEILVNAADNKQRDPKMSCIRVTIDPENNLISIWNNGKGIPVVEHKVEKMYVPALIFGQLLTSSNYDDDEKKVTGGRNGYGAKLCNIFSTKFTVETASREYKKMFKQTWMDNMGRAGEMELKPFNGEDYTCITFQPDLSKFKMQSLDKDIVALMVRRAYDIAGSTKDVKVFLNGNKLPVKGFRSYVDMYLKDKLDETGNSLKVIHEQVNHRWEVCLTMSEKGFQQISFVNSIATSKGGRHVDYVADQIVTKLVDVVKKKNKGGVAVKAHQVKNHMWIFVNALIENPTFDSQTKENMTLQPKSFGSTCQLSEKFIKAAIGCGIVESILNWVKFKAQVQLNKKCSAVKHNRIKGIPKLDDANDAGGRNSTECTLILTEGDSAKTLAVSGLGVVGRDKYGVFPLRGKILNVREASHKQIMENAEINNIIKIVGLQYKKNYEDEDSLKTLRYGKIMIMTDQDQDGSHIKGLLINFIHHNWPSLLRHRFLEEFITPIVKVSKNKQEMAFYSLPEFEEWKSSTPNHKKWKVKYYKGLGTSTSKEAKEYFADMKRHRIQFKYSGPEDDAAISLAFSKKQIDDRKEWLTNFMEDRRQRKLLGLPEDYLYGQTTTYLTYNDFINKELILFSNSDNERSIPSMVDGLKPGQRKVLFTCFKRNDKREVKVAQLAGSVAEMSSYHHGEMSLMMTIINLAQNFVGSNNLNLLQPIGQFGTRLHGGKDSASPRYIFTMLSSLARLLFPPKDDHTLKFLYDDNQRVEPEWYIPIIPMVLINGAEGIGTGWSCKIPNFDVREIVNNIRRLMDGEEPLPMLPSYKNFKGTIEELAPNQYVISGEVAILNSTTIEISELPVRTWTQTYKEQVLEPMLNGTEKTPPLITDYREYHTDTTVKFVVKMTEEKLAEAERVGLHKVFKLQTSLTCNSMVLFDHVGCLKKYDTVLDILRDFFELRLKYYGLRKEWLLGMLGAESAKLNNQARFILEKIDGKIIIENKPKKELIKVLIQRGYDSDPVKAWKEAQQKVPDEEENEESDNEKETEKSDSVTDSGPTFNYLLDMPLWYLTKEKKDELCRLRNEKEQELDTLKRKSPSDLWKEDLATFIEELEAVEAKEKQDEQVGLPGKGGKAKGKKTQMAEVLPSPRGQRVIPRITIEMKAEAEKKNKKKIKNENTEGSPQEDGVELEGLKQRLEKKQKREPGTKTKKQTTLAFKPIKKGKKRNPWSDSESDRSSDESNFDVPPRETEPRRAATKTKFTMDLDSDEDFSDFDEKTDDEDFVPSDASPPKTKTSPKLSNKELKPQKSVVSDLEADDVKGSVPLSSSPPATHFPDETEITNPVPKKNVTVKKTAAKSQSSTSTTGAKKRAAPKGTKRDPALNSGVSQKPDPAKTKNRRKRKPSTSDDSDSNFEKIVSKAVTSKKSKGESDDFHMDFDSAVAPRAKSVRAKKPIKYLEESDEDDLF

One may read the IC50 as the concentration needed to halve the response being measured. Take `CC(C)c1cc(-c2nnc(O)n2-c2ccc3c(ccn3C)c2)c(O)cc1O` [Compound 1, 3-(2,4-DIHYDROXY-5- ISOPROPYL-PHENYL)-4-(1- METHYL-INDOL-5-YL)-5- HYDROXY-[1,2,4] TRIAZOLE]: in experiment [1], the IC50 was determined as 16 nM. Moreover, at topoisomerase II, the “Topo II assay (effectiveness at inhibition)” value is “+”.

Take `COc1cc([C@@H]2c3cc4c(cc3[C@@H](O[C@@H]3O[C@@H]5CO[C@@H](C)O[C@H]5[C@H](O)[C@H]3O)[C@H]3COC(=O)[C@H]23)OCO4)cc(OC)c1O` [etoposide, reference compound]: the IC50 in experiment [1] worked out at 21 nM.
